Measured values taken from US20120040955A1 (priority 2009, published 2012).

How the values were obtained:
JAK2 = molecular target: T1, JAK2 (Homo sapiens, UniProt O60674); assay: kinobeads assay (competition with affinity matrix in mixed Molt4/Ramos cell lysate, dot blot detection), JAK2; format: binding; conditions: activity level
T1 construct: endogenous in cells; host or cells: Mixed Molt4 / Ramos cell lysate (1:2)
Procedure: (§1) The compounds of the present invention as described in the previous examples were tested in a kinobeads assay as described for ZAP-70 (WO-A 2007/137867). Briefly, test compounds (at various concentrations) and the affinity matrix with the immobilized aminopyrido-pyrimidine ligand 24 were added to cell lysate aliquots and allowed to bind to the proteins in the lysate sample. After the incubation time the beads with captured proteins were separated from the lysate. Bound proteins were then eluted and the presence of, JAK2 and JAK3 was detected and quantified using specific antibodies in a dot blot procedure and the Odyssey infrared detection system. Dose response curves for individual kinases were generated and IC50 values calculated. Kinobeads assays for ZAP-70 (WO-A 2007/137867) and for kinase selectivity profiling (WO-A 2006/134056) have been previously described.
(§2) 5× DP buffer: 250 mM Tris-HCl pH 7.4, 25% Glycerol, 7.5 mM MgCl2, 750 mM NaCl, 5 mM Na3VO4; filter the 5× DP buffer through a 0.22 μm filter and store in aliquots at −80° C. The 5× DP buffer is diluted with H2O to 1× DP buffer containing 1 mM DTT and 25 mM NaF.
(§3) Stock solutions of test compounds were prepared in DMSO. In a 96 well plate 30 μl solution of diluted test compounds at 5 mM in DMSO were prepared. Starting with this solution a 1:3 dilution series (9 steps) was prepared. For control experiments (no test compound) a buffer containing 2% DMSO was used.
(§4) Molt4 cells (ATCC catalogue number CRL-1582) and Ramos cells (ATCC catalogue number CRL-1596) were grown in 1 litre Spinner flasks (Integra Biosciences, #182101) in suspension in RPMI 1640 medium (Invitrogen, #21875-034) supplemented with 10% Fetal Bovine Serum (Invitrogen) at a density between 0.15×10^6 and 1.2×10^6 cells/ml. Cells were harvested by centrifugation, washed once with 1× PBS buffer (Invitrogen, #14190-094) and cell pellets were frozen in liquid nitrogen and subsequently stored at −80° C. Cells were homogenized in a Potter S homogenizer in lysis buffer: 50 mM Tris-HCl, 0.8% NP40, 5% glycerol, 150 mM NaCl, 1.5 mM MgCl2, 25 mM NaF, 1 mM sodium vanadate, 1 mM DTT, pH 7.5. One complete EDTA-free tablet (protease inhibitor cocktail, Roche Diagnostics, 1873580) per 25 ml buffer was added. The material was dounced 10 times using a mechanized POTTER S, transferred to 50 ml falcon tubes, incubated for 30 minutes on ice and spun down for 10 min at 20,000 g at 4° C. (10,000 rpm in Sorvall SLA600, precooled). The supernatant was transferred to an ultracentrifuge (UZ)-polycarbonate tube (Beckmann, 355654) and spun for 1 hour at 100.000 g at 4° C. (33.500 rpm in Ti50.2, precooled). The supernatant was transferred again to a fresh 50 ml falcon tube, the protein concentration was determined by a Bradford assay (BioRad) and samples containing 50 mg of protein per aliquot were prepared. The samples were immediately used for experiments or frozen in liquid nitrogen and stored frozen at −80° C.
(§5) Cell lysate (approximately 50 mg protein per plate) was thawed in a water bath at room temperature and then kept on ice. To the thawed cell lysate 1× DP 0.8% NP40 buffer containing protease inhibitors (1 tablet for 25 ml buffer; EDTA-free protease inhibitor cocktail; Roche Diagnostics 1873580) was added in order to reach a final protein concentration of 5 mg/ml total protein. The diluted cell lysate was stored on ice. Mixed Molt4/Ramos lysate was prepared by combining one volume of Molt4 lysate and two volumes of Ramos lysate (ratio 1:2).
(§6) To a 96 well filter plate (Multiscreen HTS, BV Filter Plates, Millipore #MSBVN1250) were added per well: 100 μl affinity matrix (3% beads slurry), 3 μl of compound solution, and 50 μl of diluted lysate. Plates were sealed and incubated for three hours in a cold room on a plate shaker (Heidolph tiramax 1000) at 750 rpm. Afterwards the plate was washed twice with 230 μl washing buffer (1× DP 0.4% NP40). […]

JAK3 = molecular target: T2, JAK3 (Homo sapiens, UniProt P52333); assay: kinobeads assay (competition with affinity matrix in mixed Molt4/Ramos cell lysate, dot blot detection), JAK3; format: binding; conditions: activity level
T2 construct: endogenous in cells; host or cells: Mixed Molt4 / Ramos cell lysate (1:2)
T2 sequence (P52333 1-1124): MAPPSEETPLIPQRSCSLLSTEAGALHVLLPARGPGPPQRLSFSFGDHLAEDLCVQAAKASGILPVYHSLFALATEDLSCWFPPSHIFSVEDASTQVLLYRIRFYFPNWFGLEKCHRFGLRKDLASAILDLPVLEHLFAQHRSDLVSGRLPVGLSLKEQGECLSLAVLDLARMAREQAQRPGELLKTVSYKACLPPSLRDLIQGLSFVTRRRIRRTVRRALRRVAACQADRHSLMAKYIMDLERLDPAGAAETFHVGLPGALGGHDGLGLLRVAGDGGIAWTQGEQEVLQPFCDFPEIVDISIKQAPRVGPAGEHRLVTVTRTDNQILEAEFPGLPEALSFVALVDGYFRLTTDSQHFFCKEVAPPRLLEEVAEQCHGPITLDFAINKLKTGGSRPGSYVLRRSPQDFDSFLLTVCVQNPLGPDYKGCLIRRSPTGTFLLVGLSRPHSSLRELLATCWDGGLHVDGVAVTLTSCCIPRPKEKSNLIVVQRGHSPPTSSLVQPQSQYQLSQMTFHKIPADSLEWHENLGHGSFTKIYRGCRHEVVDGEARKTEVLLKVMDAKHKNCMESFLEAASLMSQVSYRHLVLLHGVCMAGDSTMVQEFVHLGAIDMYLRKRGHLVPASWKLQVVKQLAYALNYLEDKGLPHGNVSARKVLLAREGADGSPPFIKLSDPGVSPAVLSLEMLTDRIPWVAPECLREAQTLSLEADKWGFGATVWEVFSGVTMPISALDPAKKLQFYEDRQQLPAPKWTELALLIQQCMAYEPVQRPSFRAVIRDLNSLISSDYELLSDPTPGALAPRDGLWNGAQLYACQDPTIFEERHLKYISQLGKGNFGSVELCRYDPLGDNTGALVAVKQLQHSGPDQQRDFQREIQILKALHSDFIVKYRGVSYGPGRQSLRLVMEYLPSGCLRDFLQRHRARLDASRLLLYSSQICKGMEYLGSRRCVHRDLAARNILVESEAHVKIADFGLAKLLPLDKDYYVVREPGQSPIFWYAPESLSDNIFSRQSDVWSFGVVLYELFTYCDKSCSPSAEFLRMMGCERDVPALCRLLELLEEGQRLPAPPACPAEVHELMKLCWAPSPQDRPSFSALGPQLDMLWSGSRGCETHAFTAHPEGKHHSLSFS
Procedure: as §1, §2, §3, §4, §5, §6

T1 sequence (O60674 whole entry): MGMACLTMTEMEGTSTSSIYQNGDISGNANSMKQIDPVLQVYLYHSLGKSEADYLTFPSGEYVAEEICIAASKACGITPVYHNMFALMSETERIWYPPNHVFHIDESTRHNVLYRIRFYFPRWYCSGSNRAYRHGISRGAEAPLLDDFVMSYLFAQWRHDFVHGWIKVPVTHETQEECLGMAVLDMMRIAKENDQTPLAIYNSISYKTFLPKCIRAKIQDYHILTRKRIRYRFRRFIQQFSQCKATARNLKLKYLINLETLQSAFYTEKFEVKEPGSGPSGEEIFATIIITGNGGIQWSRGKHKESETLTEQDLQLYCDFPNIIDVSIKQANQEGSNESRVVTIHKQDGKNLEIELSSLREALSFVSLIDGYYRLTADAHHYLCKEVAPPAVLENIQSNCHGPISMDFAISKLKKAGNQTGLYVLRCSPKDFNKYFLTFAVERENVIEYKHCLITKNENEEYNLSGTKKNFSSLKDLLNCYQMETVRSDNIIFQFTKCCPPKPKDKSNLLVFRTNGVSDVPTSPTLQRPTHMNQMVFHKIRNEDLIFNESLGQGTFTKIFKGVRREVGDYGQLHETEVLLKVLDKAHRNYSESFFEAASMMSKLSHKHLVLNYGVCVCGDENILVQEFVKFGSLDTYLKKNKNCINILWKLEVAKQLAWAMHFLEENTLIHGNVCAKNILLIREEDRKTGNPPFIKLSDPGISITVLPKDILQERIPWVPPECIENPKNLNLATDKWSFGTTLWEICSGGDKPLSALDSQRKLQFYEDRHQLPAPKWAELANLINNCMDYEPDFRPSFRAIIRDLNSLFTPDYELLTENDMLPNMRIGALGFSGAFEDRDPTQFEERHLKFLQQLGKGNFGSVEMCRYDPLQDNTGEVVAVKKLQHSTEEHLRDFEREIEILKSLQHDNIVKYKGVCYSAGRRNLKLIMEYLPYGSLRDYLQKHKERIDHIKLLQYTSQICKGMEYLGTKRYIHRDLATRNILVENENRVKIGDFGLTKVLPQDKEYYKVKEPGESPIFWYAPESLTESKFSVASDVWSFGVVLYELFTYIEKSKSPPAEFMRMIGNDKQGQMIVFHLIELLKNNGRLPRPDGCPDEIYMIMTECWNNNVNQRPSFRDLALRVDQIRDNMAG

Compound | IC50 (JAK2) [µM] | IC50 (JAK3) [µM]
CS(=O)(=O)Nc1c(F)cccc1Nc1nc(Nc2cc(-n3cnnn3)ccc2F)ncc1Cl [Example 55, N-(2-(5-chloro-2-(2-fluoro-5-(1H-tetrazol-1-yl)phenylamino)pyrimidin-4-ylamino)-6-fluorophenyl)methanesulfonamide] | 0.1 to 1 | < 0.1
Cc1cccc(Nc2nc(Nc3cc(C(=O)NCCO)ccc3F)ncc2Cl)c1NS(C)(=O)=O [Example 59, 3-((5-chloro-4-((3-methyl-2-(methylsulfonamido)phenyl)amino)pyrimidin-2-yl)amino)-4-fluoro-N-(2-hydroxyethyl)benzamide] | > 10 | < 0.1
CNC(=O)c1ccc(F)c(Nc2ncc(F)c(Nc3ccccc3NS(C)(=O)=O)n2)c1 [Example 30, 3-(5-fluoro-4-(2-(methylsulfonamido)phenylamino)pyrimidin-2-ylamino)-4-fluoro-N-methybenzamide] | > 10 | 0.1 to 1
CCS(=O)(=O)Nc1ccccc1Nc1nc(Nc2cc(C(=O)NC3CC3)ccc2F)ncc1Cl [Example 42, 3-(5-chloro-4-(2-(ethylsulfonamido)phenylamino)pyrimidin-2-ylamino)-N-cyclopropyl-4-fluorobenzamide] | > 10 | < 0.1
CS(=O)(=O)Nc1ccccc1Nc1nc(Nc2cc(C(=O)NC3CC3)ccc2F)ncc1F [Example 32, 3-(5-fluoro-4-(2-(methylsulfonamido)phenylamino)pyrimidin-2-ylamino)-N-cyclopropyl-4-fluorobenzamide] | > 10 | 0.1 to 1
CC(C)NC(=O)c1ccc(F)c(Nc2ncc(F)c(Nc3ccccc3NS(C)(=O)=O)n2)c1 [Example 31] | > 10 | 0.1 to 1
CS(=O)(=O)Nc1ccccc1Nc1nc(Nc2cc(-n3cnnn3)ccc2F)ncc1F [Example 1, N-(2-(5-fluoro-2-(2-fluoro-5-(1H-tetrazol-1-yl)phenylamino)pyrimidin-4-ylamino)phenyl)methanesulfonamide] | 1 to 10 | < 0.1
CCNC(=O)c1ccc(F)c(Nc2ncc(Cl)c(Nc3ccccc3NS(=O)(=O)CC)n2)c1 [Example 39, 3-(5-chloro-4-(2-(ethylsulfonamido)phenylamino)pyrimidin-2-ylamino)-N-ethyl-4-fluorobenzamide] | > 10 | < 0.1
COCCNC(=O)c1ccc(F)c(Nc2ncc(Cl)c(Nc3ccccc3NS(C)(=O)=O)n2)c1 [Example 53, 3-(5-chloro-4-(2-(methylsulfonamido)phenylamino)pyrimidin-2-ylamino)-4-fluoro-N-(2-methoxyethyl)benzamide] | > 10 | < 0.1
COc1ccc(Nc2nc(Nc3cc(-n4cnnn4)ccc3F)ncc2Cl)c(NS(C)(=O)=O)c1 [Example 10, N-(2-(5-chloro-2-(2-fluoro-5-(1H-tetrazol-1-yl)phenylamino)pyrimidin-4-ylamino)-5-methoxyphenyl)methanesulfonamide] | 0.1 to 1 | < 0.1
CNC(=O)c1cccc(Nc2ncc(Cl)c(Nc3ccccc3NS(C)(=O)=O)n2)c1F [Example 56, 3-(5-chloro-4-(2-(methylsulfonamido)phenylamino)pyrimidin-2-ylamino)-2-fluoro-N-methylbenzamide] | 1 to 10 | < 0.1
CS(=O)(=O)Nc1ccccc1Nc1nc(Nc2cc(-n3cnnn3)ccc2F)ncc1Br [Example 12, N-(2-(5-bromo-2-(2-fluoro-5-(1H-tetrazol-1-yl)phenylamino)pyrimidin-4-ylamino)phenyl)methanesulfonamide] | 0.1 to 1 | < 0.1
CCS(=O)(=O)Nc1ccccc1Nc1nc(Nc2cc(C(=O)N3CCCC3)ccc2F)ncc1Cl [Example 41, N-(2-(5-chloro-2-(2-fluoro-5-(pyrrolidine-1-carbonyl)phenylamino)pyrimidin-4-ylamino)phenyl)ethanesulfonamide] | > 10 | 0.1 to 1
CS(=O)(=O)Nc1ccccc1Nc1nc(Nc2cc(C#N)ccc2F)ncc1Cl [Example 28, N-(2-(5-chloro-2-(5-cyano-2-fluorophenylamino)pyrimidin-4-ylamino)phenyl)methanesulfonamide] | > 10 | < 0.1
CNC(=O)c1ccc(F)c(Nc2ncc(Cl)c(Nc3cc(F)c(F)cc3NS(C)(=O)=O)n2)c1 [Example 63, 3-(5-chloro-4-(4,5-difluoro-2-(methylsulfonamido)phenylamino)pyrimidin-2-ylamino)-4-fluoro-N-methylbenzamide] | 1 to 10 | 0.1 to 1
CS(=O)(=O)Nc1ccccc1Nc1nc(Nc2cc(C(=O)N3CCOCC3)ccc2F)ncc1Cl [Example 54, N-(2-(5-chloro-2-(2-fluoro-5-(morpholine-4-carbonyl)phenylamino)pyrimidin-4-ylamino)phenyl)methanesulfonamide] | > 10 | < 0.1
CCNC(=O)c1ccc(F)c(Nc2ncc(Cl)c(Nc3ccccc3NS(C)(=O)=O)n2)c1 [Example 14] | 0.1 to 1 | < 0.1
CS(=O)(=O)Nc1c(F)cc(F)cc1Nc1nc(Nc2cc(C(=O)NC3CC3)ccc2F)ncc1Cl [Example 62, 3-((5-chloro-4-((3,5-difluoro-2-(methylsulfonamido)phenyl)amino)pyrimidin-2-yl)amino)-N-cyclopropyl-4-fluorobenzamide] | 1 to 10 | 0.1 to 1
CC(C)NC(=O)c1ccc(Nc2ncc(Cl)c(Nc3ccccc3NS(C)(=O)=O)n2)c(F)c1F [Example 58, 4-((5-chloro-4-((2-(methylsulfonamido)phenyl)amino)pyrimidin-2-yl)amino)-2,3-difluoro-N-isopropylbenzamide] | 1 to 10 | < 0.1
